The source of these data is patent US4171367A, “Pyrazolyl amino imidazolines” (Abbott Laboratories, priority 1977, dated 1979).

Structures can show the parent of a compound that is named as a salt. Where two headings read alike, the source gives them in different places.

The test system of the assay is reverse passive Arthus reaction. Put plainly: reverse passive Arthus reaction test in rats (anti-inflammatory effect, oral). The following applies: 4 h, read-out: Percent Inhibition of Arthus Reaction; for inhibition in vivo at 25 mg/kg: oral dose 25 mg/kg. The format is in vivo, rat (male Sprague-Dawley). An excerpt:
The anti-inflammatory activity of the compounds of this invention was established using the reverse passive Arthus reaction in the rat as described by G. W. Carter and R. A. Krause in Federation Proceedings, Vol. 35, p. 774, 1976. The carrageenin rat paw edema test (Winter et al, Proc. Soc. Exp. Biol. Med., 111, 554, 1962) can be used to establish anti-inflammatory activity, however, unlike carrageenin induced edema, the Arthus reaction is a well characterized immune reaction which bears close resemblance to the pathogenisis of rheumatoid arthritis.
The Arthus reaction represents one of the oldest and best studied models of immunological injury. It is produced by the injection of antigen locally into a hyperimmunized animal or by the injection of a small amount of antibody into the skin of an animal that has just previously been given a large amount of soluble antigen intravenously. In both cases the antigen and antibody become deposited in the walls of small venules. Plasma complement is rapidly bound and activated. Within a few hours neutrophils (PMNs) accumulate, resulting in disruption of the basement membrane of vessel walls and marked edema and hemorrage in the surrounding tissue.
The reverse passive Arthus reaction test in rats is conducted as follows. Male Sprague-Dawley rats weighing approximately 130-160 g. are used, 4 rats per group. All animals are injected intravenously with 0.5 ml. 0.075% Bovine Serum Albumin (B.S.A.)+0.2% Evans Blue solution. Each rat then receives an oral dose of drug; one drug is administered per group.
Thirty minutes subsequent to drug dosing, each animal is injected intradermally with 0.05 ml. 1.44% Anti-B.S.A. into the dorsal skin. Four hours later the animals are sacrificed, the dorsal skin reflexed, and the lesion excised. Two perpendicular diameters of each lesion are measured. The average diameters of the lesions from the treated groups are compared with the average diameters from the control group to determine any drug effect.
The anti-inflammatory activity of representative compounds of this invention, as determined by the reverse passive Arthus reaction test in rats, is summarized in Table I.

Take `Brc1c(-c2ccccc2)nn(-c2ccccc2)c1NC1=NCCN1` [R1=C6H5, R2=C6H5, R3=Br, R4=H, 2(4-Bromo-1,3-diphenyl-5-pyrazolyl) amino-2-imidazoline hydrobromide]: under “oral dose 100 mg/kg, rat”, the inhibition in vivo at 100 mg/kg came to 17%.

With `c1ccc(-c2cc(NC3=NCCN3)n(-c3ccccc3)n2)cc1` [R1=C6H5, R2=C6H5, R3=H, R4=H, 2(1,3-Diphenyl-5-pyrazolyl) amino-2-imidazoline], where the note is “oral dose 100 mg/kg, rat”, the inhibition in vivo at 100 mg/kg came out at 32%.

On to `Brc1cnn(-c2ccccc2)c1NC1=NCCN1` [R1=C6H5, R2=H, R3=Br, R4=H, 2-(4-Bromo-1-phenyl-5-pyrazolyl)-amino-2-imidazoline hydrochloride], for which the inhibition in vivo at 25 mg/kg (rat) amounted to 41%. Moreover, where the note is “oral dose 100 mg/kg, rat”, the inhibition in vivo at 100 mg/kg was determined as 59%.

As for `CC(=O)N1CCN=C1Nc1ccnn1-c1ccccc1` [R1=C6H5, R2=H, R3=H, R4=COCH3, 1-Acetyl-2-(1-phenyl-5-pyrazolyl)-amino-2-imidazoline], the inhibition in vivo at 100 mg/kg (oral dose 100 mg/kg, rat) worked out at 70%.

For the compound `c1ccc(-n2nccc2NC2=NCCN2)cc1` [R1=C6H5, R2=H, R3=H, R4=H, 2-(1-Phenyl-5-pyrazolyl)-amino-2-imidazoline], the inhibition in vivo at 25 mg/kg (rat) turned out to be 62%. In addition, where the note is “oral dose 100 mg/kg, rat”, the inhibition in vivo at 100 mg/kg is 75%.

As to `CC(C)c1nn(C(C)C)c(NC2=NCCN2)c1Br` [R1=Me2CH, R2=Me2CH, R3=Br, R4=H, 2-(4-Bromo-1,3-di-isopropyl-5-pyrazolyl)amino-2-imidazoline hydrobromide], under “Rattus norvegicus, po”, the inhibition in vivo at 100 mg/kg was determined as 27%.

Take `CC(C)c1cc(NC2=NCCN2)n(C(C)C)n1` [R1=Me2CH, R2=Me2CH, R3=H, R4=H, 2-(1,3-Di-isopropyl-5-pyrazolyl)-amino-2-imidazoline]: the inhibition in vivo at 100 mg/kg (oral dose 100 mg/kg, rat) is 11%.

Turning to `CC(=O)N1CCN=C1Nc1cc(C)nn1C(C)C` [R1=Me2CH, R2=Me, R3=H, R4=COCH3, 1-Acetyl-2(1-isopropyl-3-methyl-5-pyrazolyl)amino-2-imidazoline], the inhibition in vivo at 50 mg/kg (oral dose 50 mg/kg, rat) was 30%. Further, the inhibition in vivo at 100 mg/kg (oral dose 100 mg/kg, rat) stood at 39%.

On to `Cc1cc(NC2=NCCN2)n(C(C)C)n1` [R1=Me2CH, R2=Me, R3=H, R4=H, 2-(1-Isopropyl-3-methyl-5-pyrazolyl)amino-2-imidazoline], for which, under “oral dose 50 mg/kg, rat”, the inhibition in vivo at 50 mg/kg is 20%. In addition, the inhibition in vivo at 100 mg/kg (oral dose 100 mg/kg, rat) is 29%.

On to `Cc1nn(CCC(C)C)c(NC2=NCCN2)c1Br` [R1=Me2CHCH2CH2, R2=Me, R3=Br, R4=H, 2[4-Bromo-1-(3-methylbutyl)-3-methyl-5-pyrazolyl]amino-2-imidazoline hydrochloride], for which the inhibition in vivo at 100 mg/kg (Rattus norvegicus, po) turned out to be 16%.

For the compound `Cc1cc(NC2=NCCN2)n(CCC(C)C)n1` [R1=Me2CHCH2CH2, R2=Me, R3=H, R4=H, 2[1-(3-Methylbutyl)-3-methyl-5-pyrazolyl]amino-2-imidazoline], the inhibition in vivo at 100 mg/kg (Rattus norvegicus, po) stood at 15%.

Turning to `CC(C)c1nn(C)c(NC2=NCCN2)c1Br` [R1=Me, R2=Me2CH, R3=Br, R4=H, 2(4-Bromo-3-isopropyl-1-methyl-5-pyrazolyl)amino-2-imidazoline hydrobromide], where the note is “Rattus norvegicus, po”, the inhibition in vivo at 50 mg/kg was 37% and the inhibition in vivo at 100 mg/kg worked out at 42%.

On to `CC(=O)N1CCN=C1Nc1cc(C(C)C)nn1C` [R1=Me, R2=Me2CH, R3=H, R4=COCH3, 1-Acetyl-2(3-isopropyl-1-methyl-5-pyrazolyl)amino-2-imidazoline], for which the inhibition in vivo at 100 mg/kg (oral dose 100 mg/kg, rat) worked out at 18%.

On to `CC(C)c1cc(NC2=NCCN2)n(C)n1` [R1=Me, R2=Me2CH, R3=H, R4=H, 2(3-Isopropyl-1-methyl-5-pyrazolyl)-amino-2-imidazoline], for which, for the setting “oral dose 50 mg/kg, rat”, the inhibition in vivo at 50 mg/kg was 33%. Where the note is “oral dose 100 mg/kg, rat”, the inhibition in vivo at 100 mg/kg stood at 42%.

For `Cc1nn(C)c(Cl)c1NC1=NCCN1` [R1=Me, R2=Me, R3=(5) (C1), R4=H, 2-(4-chloro-1,3-dimethyl-4-pyrazolyl)-amino-2-imidazoline hydrochloride], the inhibition in vivo at 10 mg/kg (oral dose 10 mg/kg, rat) is 49%. The inhibition in vivo at 25 mg/kg (rat) worked out at 64%. Further, the inhibition in vivo at 100 mg/kg (oral dose 100 mg/kg, rat) was 69%.

`CC(=O)N1CCN=C1Nc1c(C)nn(C)c1Cl` [R1=Me, R2=Me, R3=(5) C1, R4=COCH3, 1-acetyl-2-(5-chloro-1,3-dimethyl-4-pyrazolyl) amino-2-imidazoline hydrochloride]: the inhibition in vivo at 25 mg/kg (rat) was 39%. In addition, where the note is “oral dose 100 mg/kg, rat”, the inhibition in vivo at 100 mg/kg stood at 63%.

`Cc1nn(C)c(NC2=NCCN2)c1Br` [R1=Me, R2=Me, R3=Br, R4=H, 2(4-Bromo-1,3-dimethyl-5-pyrazolyl)-amino-2-imidazoline]: the inhibition in vivo at 50 mg/kg (oral dose 50 mg/kg, rat) stood at 45%.

Take `Cc1cc(NC2=NCCN2)n(C)n1` [R1=Me, R2=Me, R3=H, R4=H, 2(1,3-Dimethyl-5-pyrazolyl) amino-b 2-imidazoline]: under “oral dose 100 mg/kg, rat”, the inhibition in vivo at 100 mg/kg was 55%.

As to `Cc1nn(C)c(NC2=NCCN2)c1I` [R1=Me, R2=Me, R3=I, R4=H, 2(1,3-Dimethyl-4-iodo-5-pyrazolyl)-amino-2-imidazoline], the inhibition in vivo at 100 mg/kg (oral dose 100 mg/kg, rat) stood at 43%.

In the case of `Brc1cnn(C2CCCCC2)c1NC1=NCCN1` [R1=drawing 4, R2=H, R3=Br, R4=H, 2-(4-Bromo-1-cyclohexyl-5-pyrazolyl)-amino-2-imidazoline hydrochloride], the inhibition in vivo at 100 mg/kg (oral dose 100 mg/kg, rat) turned out to be 15%.

As to `c1cc(NC2=NCCN2)n(C2CCCCC2)n1` [R1=drawing 5, R2=H, R3=H, R4=H, 2-(1-Cyclohexyl-5-pyrazolyl)-amino-2-imidazoline], the inhibition in vivo at 100 mg/kg (oral dose 100 mg/kg, rat) was determined as 15%.
